According to article PMC6941952, “A homogeneous bioluminescent immunoassay to probe cellular signaling pathway regulation” (Communications Biology, 2020):

System: phospho-IκBα (Ser32)
Test: NanoBiT cell-based immunoassay, phosphorylated IκBα in MCF-7 cells
Design: species or system human
Conditions: for Raw data / Subtract reagent background: TNF
Experimental: Prior to NanoBiT Cell-Based Immunoassay, 50,000 cells were seeded in 160 µl of complete growth media per well of a 96-well plate and incubated overnight. The cells were checked under microscope and it was determined that 50,000 cells per well in 96-well plate is under 90% confluency for all cells tested. If necessary, the cell culture media were replaced with serum-free media after the cells were stably adherent on the plate and incubated overnight. To treat cells with activators or inhibitors, medium was changed to 30 µl of medium containing inhibitors. If activation of a specific pathway is needed, the cells were stimulated with 10 µl of medium containing activators. To lyse the cells, 10 µl of lysis buffer containing 0.1% digitonin diluted in 1X immunoassay buffer with protease and phosphatase inhibitors was added and the plates were mixed vigorously for 20 min. Then, 50 µl of an antibody mix containing two primary antibodies against the target protein and NanoBiT detecting antibodies (0.3 µl each per well), diluted in 1X immunoassay buffer was added to the lysates. The plates were incubated at 23 °C for 90 min, followed by the addition of 25 µl of Nano-Glo® reagent consisting of Nano-Glo® Luciferase Assay Substrate mixed with 1X immunoassay buffer. Luminescence was measured using a plate-reading luminometer.
In all, 50,000 MCF-7 cells were seeded in 160 µl complete growth medium per well of a 96-well plate and incubated overnight. Half of the cells were treated with 50 ng per ml TNFα and half with vehicle. Cells were lysed as described above and a mixture of NanoBiT secondary antibodies with primary antibodies at the matrix concentrations described in Fig. 2a were added. After 90 min incubation, the Nano-Glo® reagent was added to the reactions as described above and luminescence was measured using a plate-reading luminometer.
Single dose or dose response inhibitor treatments were performed prior to activation of the pathways as follows. For IκBα, the cells were treated in 30 µl medium with IKK16 or MG132 for 60 min before the addition of 10 µl of DMEM containing appropriate concentration of TNFα. To measure phosphorylation of AKT or STAT3, the corresponding NanoBiT immunoassays were developed with MCF-7 or A431 cells, respectively, according the same scheme used to develop the IκBα assay using the primary antibodies for AKT and STAT3 described in the reagents section. For the AKT assay, MCF-7 cells were incubated overnight in phenol-red free DMEM medium (Gibco #21063-029) without serum. Treatment with LY294002 was performed in 30 µl medium and cells were incubated for 60 min before the addition of 1 µM Insulin. To measure STAT3 phosphorylation, A431 cells were incubated overnight in DMEM medium without serum. […] After addition of the stimulators, the cells were incubated for additional times as follows. IκBα phosphorylation and degradation analyses required both time courses and single time points as described in figures. […] The NanoBiT immunoassay protocol was followed as described above.
All 96-well assay plates were read using a GloMax® 96 Microplate Luminometer from Promega. The instrument was set to 0.5 s integration time. In order to obtain net change of signal, the reagent background values (signal from the well containing all reagent except primary antibodies) were subtracted from the sample values. To plot and analyze the data, Microsoft Excel and GraphPad Prism® Software were used. IC50 values were determined by using a nonlinear regression fit to a sigmoidal dose response (variable slope).

[1] = plate #1, IkB Ab #1 75 ng/ml, P-IkB Ab #1 150 ng/ml
[2] = plate #1, IkB Ab #1 75 ng/ml, P-IkB Ab #1 300 ng/ml
[3] = plate #1, IkB Ab #1 75 ng/ml, P-IkB Ab #1 600 ng/ml
[4] = plate #1, IkB Ab #1 75 ng/ml, P-IkB Ab #1 1200 ng/ml
[5] = plate #1, IkB Ab #1 150 ng/ml, P-IkB Ab #1 75 ng/ml
[6] = plate #1, IkB Ab #1 150 ng/ml, P-IkB Ab #1 150 ng/ml
[7] = plate #1, IkB Ab #1 150 ng/ml, P-IkB Ab #1 300 ng/ml
[8] = plate #1, IkB Ab #1 150 ng/ml, P-IkB Ab #1 600 ng/ml
[9] = plate #1, IkB Ab #1 150 ng/ml, P-IkB Ab #1 1200 ng/ml
[10] = plate #1, IkB Ab #1 300 ng/ml, P-IkB Ab #1 75 ng/ml
[11] = plate #1, IkB Ab #1 300 ng/ml, P-IkB Ab #1 150 ng/ml
[12] = plate #1, IkB Ab #1 300 ng/ml, P-IkB Ab #1 300 ng/ml
[13] = plate #1, IkB Ab #1 300 ng/ml, P-IkB Ab #1 600 ng/ml
[14] = plate #1, IkB Ab #1 300 ng/ml, P-IkB Ab #1 1200 ng/ml
[15] = plate #1, IkB Ab #1 600 ng/ml, P-IkB Ab #1 75 ng/ml
[16] = plate #1, IkB Ab #1 600 ng/ml, P-IkB Ab #1 150 ng/ml
[17] = plate #1, IkB Ab #1 600 ng/ml, P-IkB Ab #1 300 ng/ml
[18] = plate #1, IkB Ab #1 600 ng/ml, P-IkB Ab #1 600 ng/ml
[19] = plate #1, IkB Ab #1 600 ng/ml, P-IkB Ab #1 1200 ng/ml
[20] = plate #1, IkB Ab #1 1200 ng/ml, P-IkB Ab #1 75 ng/ml
[21] = plate #1, IkB Ab #1 1200 ng/ml, P-IkB Ab #1 150 ng/ml
[22] = plate #1, IkB Ab #1 1200 ng/ml, P-IkB Ab #1 300 ng/ml
[23] = plate #1, IkB Ab #1 1200 ng/ml, P-IkB Ab #1 600 ng/ml
[24] = plate #1, IkB Ab #1 1200 ng/ml, P-IkB Ab #1 1200 ng/ml
[25] = plate #2, IkB Ab #2 75 ng/ml, P-IkB Ab #1 75 ng/ml

Substance: TNFα
- Raw data [1]: 38800
- Subtract reagent background [1]: 19890
- Raw data [2]: 36190
- Subtract reagent background [2]: 17280
- Raw data [3]: 29500
- Subtract reagent background [3]: 10590
- Raw data [4]: 23430
- Subtract reagent background [4]: 4520
- Raw data [5]: 31770
- Subtract reagent background [5]: 12860
- Raw data [6]: 37260
- Subtract reagent background [6]: 18350
- Raw data [7]: 34880
- Subtract reagent background [7]: 15970
- Raw data [8]: 27610
- Subtract reagent background [8]: 8700
- Raw data [9]: 22810
- Subtract reagent background [9]: 3900
- Raw data [10]: 28900
- Subtract reagent background [10]: 9990
- Raw data [11]: 32520
- Subtract reagent background [11]: 13610
- Raw data [12]: 32030
- Subtract reagent background [12]: 13120
- Raw data [13]: 24980
- Subtract reagent background [13]: 6070
- Raw data [14]: 21690
- Subtract reagent background [14]: 2780
- Raw data [15]: 24730
- Subtract reagent background [15]: 5820
- Raw data [16]: 27710
- Subtract reagent background [16]: 8800
- Raw data [17]: 26820
- Subtract reagent background [17]: 7910
- Raw data [18]: 24690
- Subtract reagent background [18]: 5780
- Raw data [19]: 22170
- Subtract reagent background [19]: 3260
- Raw data [20]: 22890
- Subtract reagent background [20]: 3980
- Raw data [21]: 24970
- Subtract reagent background [21]: 6060
- Raw data [22]: 24110
- Subtract reagent background [22]: 5200
- Raw data [23]: 24380
- Subtract reagent background [23]: 5470
- Raw data [24]: 22870
- Subtract reagent background [24]: 3960
- Fold change (TNF-treated /Non-treated) (plate #1, IkB Ab #1 (Mouse) 75 ng/ml, P-IkB Ab #1 (Rabbit) 150 ng/ml): 8.219
- Fold change (TNF-treated /Non-treated) (plate #1, IkB Ab #1 (Mouse) 75 ng/ml, P-IkB Ab #1 (Rabbit) 150 ng/ml, listed as TNF): 8.2
- Fold change (TNF-treated /Non-treated) (plate #1, IkB Ab #1 (Mouse) 75 ng/ml, P-IkB Ab #1 (Rabbit) 300 ng/ml): 4.364
- Fold change (TNF-treated /Non-treated) (plate #1, IkB Ab #1 (Mouse) 75 ng/ml, P-IkB Ab #1 (Rabbit) 300 ng/ml, listed as TNF): 4.4
- Fold change (TNF-treated /Non-treated) (plate #1, IkB Ab #1 (Mouse) 75 ng/ml, P-IkB Ab #1 (Rabbit) 600 ng/ml): 2.688
- Fold change (TNF-treated /Non-treated) (plate #1, IkB Ab #1 (Mouse) 75 ng/ml, P-IkB Ab #1 (Rabbit) 600 ng/ml, listed as TNF): 2.7
- Fold change (TNF-treated /Non-treated) (plate #1, IkB Ab #1 (Mouse) 75 ng/ml, P-IkB Ab #1 (Rabbit) 1200 ng/ml): 1.8374
- Fold change (TNF-treated /Non-treated) (plate #1, IkB Ab #1 (Mouse) 75 ng/ml, P-IkB Ab #1 (Rabbit) 1200 ng/ml, listed as TNF): 1.8
- Fold change (TNF-treated /Non-treated) (plate #1, IkB Ab #1 (Mouse) 150 ng/ml, P-IkB Ab #1 (Rabbit) 150 ng/ml): 9.557
- Fold change (TNF-treated /Non-treated) (plate #1, IkB Ab #1 (Mouse) 150 ng/ml, P-IkB Ab #1 (Rabbit) 150 ng/ml, listed as TNF): 9.6
- Fold change (TNF-treated /Non-treated) (plate #1, IkB Ab #1 (Mouse) 150 ng/ml, P-IkB Ab #1 (Rabbit) 300 ng/ml): 4.656
- Fold change (TNF-treated /Non-treated) (plate #1, IkB Ab #1 (Mouse) 150 ng/ml, P-IkB Ab #1 (Rabbit) 300 ng/ml, listed as TNF): 4.7
- Fold change (TNF-treated /Non-treated) (plate #1, IkB Ab #1 (Mouse) 150 ng/ml, P-IkB Ab #1 (Rabbit) 600 ng/ml): 2.797
- Fold change (TNF-treated /Non-treated) (plate #1, IkB Ab #1 (Mouse) 150 ng/ml, P-IkB Ab #1 (Rabbit) 600 ng/ml, listed as TNF): 2.8
- Fold change (TNF-treated /Non-treated) (plate #1, IkB Ab #1 (Mouse) 150 ng/ml, P-IkB Ab #1 (Rabbit) 1200 ng/ml): 0.8904
- Fold change (TNF-treated /Non-treated) (plate #1, IkB Ab #1 (Mouse) 150 ng/ml, P-IkB Ab #1 (Rabbit) 1200 ng/ml, listed as TNF): 0.9
- Fold change (TNF-treated /Non-treated) (plate #1, IkB Ab #1 (Mouse) 300 ng/ml, P-IkB Ab #1 (Rabbit) 150 ng/ml, listed as TNF): 4.1
- Fold change (TNF-treated /Non-treated) (plate #1, IkB Ab #1 (Mouse) 300 ng/ml, P-IkB Ab #1 (Rabbit) 300 ng/ml, listed as TNF): 3.3
- Fold change (TNF-treated /Non-treated) (plate #1, IkB Ab #1 (Mouse) 300 ng/ml, P-IkB Ab #1 (Rabbit) 600 ng/ml, listed as TNF): 1.6
- Fold change (TNF-treated /Non-treated) (plate #1, IkB Ab #1 (Mouse) 300 ng/ml, P-IkB Ab #1 (Rabbit) 1200 ng/ml, listed as TNF): 1.0
- Fold change (TNF-treated /Non-treated) (plate #1, IkB Ab #1 (Mouse) 600 ng/ml, P-IkB Ab #1 (Rabbit) 75 ng/ml, listed as TNF): 4.9
- Fold change (TNF-treated /Non-treated) (plate #1, IkB Ab #1 (Mouse) 600 ng/ml, P-IkB Ab #1 (Rabbit) 150 ng/ml, listed as TNF): 5.1
- Fold change (TNF-treated /Non-treated) (plate #1, IkB Ab #1 (Mouse) 600 ng/ml, P-IkB Ab #1 (Rabbit) 300 ng/ml, listed as TNF): 3.0
- Fold change (TNF-treated /Non-treated) (plate #1, IkB Ab #1 (Mouse) 600 ng/ml, P-IkB Ab #1 (Rabbit) 600 ng/ml, listed as TNF): 2.3
- Fold change (TNF-treated /Non-treated) (plate #1, IkB Ab #1 (Mouse) 600 ng/ml, P-IkB Ab #1 (Rabbit) 1200 ng/ml, listed as TNF): 1.1
- Fold change (TNF-treated /Non-treated) (plate #1, IkB Ab #1 (Mouse) 1200 ng/ml, P-IkB Ab #1 (Rabbit) 75 ng/ml, listed as TNF): 2.5
- Fold change (TNF-treated /Non-treated) (plate #1, IkB Ab #1 (Mouse) 1200 ng/ml, P-IkB Ab #1 (Rabbit) 150 ng/ml, listed as TNF): 3.0
- Fold change (TNF-treated /Non-treated) (plate #1, IkB Ab #1 (Mouse) 1200 ng/ml, P-IkB Ab #1 (Rabbit) 300 ng/ml, listed as TNF): 1.9
- Fold change (TNF-treated /Non-treated) (plate #1, IkB Ab #1 (Mouse) 1200 ng/ml, P-IkB Ab #1 (Rabbit) 600 ng/ml, listed as TNF): 2.0
- Fold change (TNF-treated /Non-treated) (plate #1, IkB Ab #1 (Mouse) 1200 ng/ml, P-IkB Ab #1 (Rabbit) 1200 ng/ml, listed as TNF): 1.8
- Raw data [25]: 20520
- Subtract reagent background [25]: 2000
- Raw data (plate #2, IkB Ab #2 75 ng/ml, P-IkB Ab #1 150 ng/ml): 20690
